The target of assay [1] is T1, CYP24 (Homo sapiens, UniProt Q07973).
T1 construct: expressed in transfected cells
T1 sequence (Q07973 36-514): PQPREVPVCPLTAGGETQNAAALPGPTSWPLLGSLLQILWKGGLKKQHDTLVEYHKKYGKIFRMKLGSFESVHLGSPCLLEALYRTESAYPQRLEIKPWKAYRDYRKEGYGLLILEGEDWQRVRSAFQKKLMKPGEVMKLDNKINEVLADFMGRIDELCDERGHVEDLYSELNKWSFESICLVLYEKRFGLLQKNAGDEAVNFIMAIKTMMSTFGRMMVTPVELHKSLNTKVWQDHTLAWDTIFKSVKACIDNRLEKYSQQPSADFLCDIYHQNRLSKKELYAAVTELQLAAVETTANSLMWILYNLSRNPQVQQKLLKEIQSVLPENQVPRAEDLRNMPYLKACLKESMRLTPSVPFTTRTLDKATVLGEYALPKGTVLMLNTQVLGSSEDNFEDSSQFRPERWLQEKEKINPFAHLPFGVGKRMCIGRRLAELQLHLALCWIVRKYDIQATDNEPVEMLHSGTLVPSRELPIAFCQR
Briefly: In vitro test of ability to inhibit specifically CYP24 (standard protocol). In kind it is cell-based. The settings on record: ketoconazole as control standard.

Assay [2] deals with T1, CYP24. Nature of the assay: CYP24 enzyme assay (stable cell line V79-CYP24 cells). In kind it is cell-based. The settings on record: [3H-1β]-1α,25(OH)2D3 20 nM, 2 hours. Here is the method:
1. Preparation of Cell Suspension • On the day of the assay, washed the monolayer of V79-CYP24 cells once with 1×PBS buffer and then trypsinize for 5 min at room temperature (approx. 22° C.). Added 1×PBS. Collected cells into tube, centrifuged cells (500×g, 5 min) and resuspended in DMEM+1% BSA media.
2. Cell Plating • Added 150 μl of cell suspension to appropriately labelled wells of a 48-well plate. Incubated plate for 30 minutes at 37° C. in a humidified atmosphere containing 5% CO2 for adherence of cells to wells.
3. Compound Addition • Added 25 μl of inhibitor (10^−6 to 10^−9 M) and then after 10 min added 25 μl of substrate [^3H-1β]-1α,25(OH)2D3 (20 nM) for 2 hours at 37° C. in a humidified atmosphere containing 5% CO2. Both inhibitor and substrate were prepared in DMEM with 1% BSA media in the absence and presence of 100 μM DPPD.
4. Lipid Extraction and Counting • Added 500 μL of methanol to stop the reaction. Transferred to tube. Added 250 μl of dichloromethane and vortexed. Added 250 μl of dichloromethane and 250 μl of saturated KCL and vortexed. Centrifuged at 4000 rpm for 5 min. Triplicate 100 μl aliquots of aqueous fraction were mixed with 600 μl of scintillation fluid and the radioactivity was measured using a scintillation counter. All values were normalized for background. (iii) Results.

The test system of another assay is SCC-25 cells. Nature of the assay: [3H]-thymidine proliferation assay with SCC-25 cells. In kind it is cell-based. To be noted: together with calcitriol, three days, [3H]-thymidine 6 h. On the procedure:
1. Preparation of Cell Suspension • When SCC-25 cells were 70-80% confluent, aspirated media. Washed the cells with 1×PBS. Trypsinized with trypsin-EDTA from the plate, collected cells from the tissue culture flask, centrifuged (500×g, 5 min) and resuspended in media.
2. Cell Plating. • Counted the cells and adjusted the cell density to 10,000/ml. Added 200 μl per well in a 96 well plate. Incubated plate for 24 h at 37° C. in a humidified atmosphere plus 5% CO2. Aspirated used media and replaced with 150 μl per well with media.
3. Compound Addition. • Added 25 μl of 1α,25(OH)2D3 (final concentration 10^−6M, 10^−7 M, 10^−8 M, M, 10^−10 M, 10^−11 M) into each designated well. Added 25 μl of substrate (final concentration 10^−7 M, 5×10^−8 M, 10^−8 M or 10^−9 M) into each designated well. Incubated plates for 3 days at 37° C. in a humidified atmosphere plus 5% CO2.
4. ^3H-Thymidine Incorporation. • Added ^3H-thymidine at 0.02 μCi per well and incubated at 37° C. in a humidified atmosphere plus 5% CO2 for 6 h.
(§1) 5. Plate Harvesting. • Aspirated all media and washed cells with 1×PBS. Trypsinized cells for 30 min at 37° C. in a humidified atmosphere plus 5% CO2. Harvested cells onto a 96 well filter plate (Millipore) using a Tomtec Cell Harvestor, according to manufacturers instructions.
(§2) 6. Scintillation Counting. • Added 25 μl of scintillation fluid per well. Counted the plate using a scintillation counter.

The next assay deals with T2, VDR (Homo sapiens, UniProt P11473).
T2 construct: purchased Biomol
T2 sequence (P11473 1-427): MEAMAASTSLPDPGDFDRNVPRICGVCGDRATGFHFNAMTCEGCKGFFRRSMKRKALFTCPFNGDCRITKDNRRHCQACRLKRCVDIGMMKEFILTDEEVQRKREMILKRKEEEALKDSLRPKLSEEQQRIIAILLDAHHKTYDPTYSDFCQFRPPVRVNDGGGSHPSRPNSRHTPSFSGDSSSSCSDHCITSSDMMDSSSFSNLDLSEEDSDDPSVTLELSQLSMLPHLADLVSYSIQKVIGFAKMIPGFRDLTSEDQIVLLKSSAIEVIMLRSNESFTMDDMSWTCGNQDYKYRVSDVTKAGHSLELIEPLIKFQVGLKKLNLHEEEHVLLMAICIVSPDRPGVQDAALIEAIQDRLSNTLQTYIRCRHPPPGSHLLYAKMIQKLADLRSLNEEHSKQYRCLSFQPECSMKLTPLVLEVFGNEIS
Briefly: VDR binding assay. The settings on record: B50: displacement of 50 percent [3H]-1,25(OH)2D3 from human recombinant VDR. Here is the method: 1. VDR 9.4 pmol/μl (human, recombinant, Biomol).
4. TEK300 • Tris-HCI 50 mM • EDTA 1.5 mM • KCI 300 mM Adjust pH to 7.4 (25° C.)
3. Preparation of 1.25(OH)2D3 and test compounds in ethanol
1 μl stock VDR in 2.5 ml TEDK300/Gelatin solution (500 μl/tube), (keep on ice)
• Label tubes according to the following chart, each in triplicate:
• Mixed all tubes via vortex and incubated at room temperature for 1 hour. Added 10 μL of 3H-1,25(OH)2D3 Working Dilution, mixed by vortex and incubated at room temperature for 1 hour 2. Sample processing • Thirty minutes before addition, put Charcoal/Dextran Solution on ice with continuous mixing. Added […] of Charcoal/Dextran Solution to each tube, mixed well and incubated on ice for 30 minutes. Centrifuged @ 2000 rpm for 10 minutes at 4° C. 3. Counting • Pipetted 100 μL of the upper, aqueous phase to a 24 well scintillation counting plate and added 600 μL scintillation fluid per well, covered and mixed well. Counted the plate using a scintillation counter for 5 min/sample. (iv) Calculations: • The amount of 1,25(OH)2D3 to displace 50 percent [^3H]-1,25(OH)2D3 from VDR was calculated as B50 for 1,25(OH)2D3. The VDR binding of other compounds was calculated as B50 relative to a value of 1 for 1,25(OH)2D3.

The test system of a further assay is MCF-7 cells. Briefly: [3H]-thymidine proliferation assay with MCF-7 cells. In kind it is cell-based. The settings on record: together with calcitriol, three days, [3H]-thymidine 6 h. On the procedure: 1. Preparation of Cell Suspension • When MCF-7 cells were 70-80% confluent, aspirated growth media. Washed the cells with 1×PBS. Trypsinized with trypsin-EDTA from the plate, collected cells from the tissue culture flask, centrifuged (500×g, 5 min) and resuspended in growth media.
2. Cell Plating. • Counted the cells and adjusted the cell density to 25,000/ml. Added 200 μl per well in a 96 well plate. Incubated plate for 24 h at 37° C. in a humidified atmosphere plus 5% CO2. Aspirated used media and replaced with 150 μl per well with proliferation media.
3. Substrate Addition. • Added 25 μl of 1α,25(OH)2D3 (final concentration 10^−6 M, 10^−7 M, 10^−8 M, 10^−9 M, 10^−10 M, 10^−11 M) into each designated well. Added 25 μl of substrate (final concentration 10^−7 M, 5×10^−8 M, 10^−8 M or 10^−9 M) into each designated well. Incubated plates for 3 days at 37° C. in a humidified atmosphere plus 5% CO2.
4. ^3H-Thymidine incorporation. • Added ^3H-thymidine at 0.02 μCi per well and incubated at 37° C. in a humidified atmosphere plus 5% CO2 for 6 h.
as §1, §2

Assay [3] relates to normal human epidermal keratinocytes (NHEK). Nature of the assay: Human epidermal keratinocyte proliferation assay. To be noted: together with calcitriol, three days, [3H]-thymidine 18 h. In kind it is cell-based. Here is the method: 1. HEK Cell Media • Supplemented KGM media with additional reagents provided in the bullet kit as per supplier's instructions. • Added calcium chloride to final concentration of 0.3 mM.
2. Calcitriol Dilutions • Stock: Calcitriol (1 mM)
3. Substrate Dilutions • Stock: substrate (0.1 mM)
1. Cell Culture • Thawed one vial of HEK cells containing at least 500 K, and divided into 5 25 cm^2 flasks with 5 ml HEK cell media. 24 h later, removed media and replenished with 5 ml fresh media. Changed media again 48 h later.
2. Preparation of Cell Suspension • On the day of the assay, washed the monolayer of HEK cells once with 1×PBS buffer (provided in reagent pack) and then trypsinized for 5 min at 37° C. Added trypsin neutralizing solution (provided in reagent pack). Collected cells into tube, centrifuged cells (500×g, 5 min) and resuspended in HEK cell media. Counted cells and adjusted density to 150,000 cells/ml. Diluted cells further 1:30 with HEK cell media.
2. Cell Plating • Added 150 μl of cell suspension to appropriately labelled wells of a 96-well plate. Incubated plate for 48 h at 37° C. in a humidified atmosphere containing 5% CO2 for adherence of cells to wells.
3. […]
4. Cell Harvesting and Counting • Added 0.2 μCi/well of [^3H]-thymidine in 20 μl of HEK cell media to each well. Incubated plates for 18 h at 37° C. in a humidified atmosphere containing 5% CO2. Aspirated media and washed with 1×PBS. Trypsinize-cells for 30 min at 37° C. in a humidified atmosphere containing 5% CO2. Harvested cells onto filter plates using Tomtec cell harvester as per manufacturer's instructions. Added 25 μl scintillation fluid per well. Measured radioactivity using a scintillation counter. All values were normalized for background.

Structures are written as SMILES. pIC50: −log10 of the molar value.

Take `C[C@H](CCS(=N)(=O)c1ccccc1)[C@H]1CC[C@H]2/C(=C/C=C3C[C@@H](O)C[C@H](O)C3)CCC[C@]12C` (single isomer, unassigned) [I(j), 24 Phenyl Sulfoximine 19-Nor-Vitamin-D3]: the “selective inhibition of CYP24” value on CYP24 [1] is reported as “selectively inhibit”. On CYP24 [2], the IC50 (in general, the concentration that inhibits the measured activity by half) turned out to be 27 nM. In the assay with SCC-25 cells, the “inhibition of proliferation of SCC-25 cells” value (from here on “inhibition … of SCC-25 cells”) is recorded as “act to inhibit the proliferation”.
For `CN=S(=O)(CC[C@@H](C)[C@H]1CC[C@H]2/C(=C/C=C3C[C@@H](O)C[C@H](O)C3)CCC[C@]12C)c1ccccc1` (single isomer, unassigned) [I(k), 24-Phenyl N-Methyl Sulfoximine 19-Nor-Vitamin-D3], the “selective inhibition of CYP24” value at CYP24 [1] was “selectively inhibit”. This molecule returned an IC50 against CYP24 [2] of 300 nM. For the same molecule, the pIC50 – broadly, the IC50 on a negative log10 scale, so that one unit is a factor of ten – on VDR is below 5.70.
For the molecule `CN=S(=O)(CC[C@@H](C)[C@H]1CC[C@H]2/C(=C/C=C3C[C@@H](O)C[C@H](O)C3)CCC[C@]12C)c1ccccc1` (single isomer, unassigned) [I(l), 24-Phenyl N-Methyl Sulfoximine 19-Nor-Vitamin-D3], the “selective inhibition of CYP24” value at CYP24 [1] is listed as “selectively inhibit”. Moreover, 42 nM corresponded to half-maximal inhibition against CYP24 [2] (IC50). In the assay with SCC-25 cells, the “inhibition … of SCC-25 cells” value was “act to inhibit the proliferation”.
In the case of `C=C1/C(=C\C=C2/CCC[C@]3(C)[C@@H]([C@H](C)CC4(S(=N)(=O)c5ccccc5)CC4)CC[C@@H]23)C[C@@H](O)C[C@@H]1O` (single isomer, unassigned) [I(n)], the “selective inhibition of CYP24” value on CYP24 [1] is “selectively inhibit”. On CYP24 [2], this molecule registered an IC50 of 23 nM. The “inhibition of proliferation of MCF-7 cells” value in the assay on MCF-7 cells is given as “act to inhibit the proliferation”. Also, the “inhibition … of SCC-25 cells” value with SCC-25 cells was “act to inhibit the proliferation”. Moreover, in assay [3], the “inhibition of proliferation of normal human epidermal keratinocytes (NHEK)” value is on record as “act to inhibit the proliferation”.
For the molecule `C=C1/C(=C\C=C2/CCC[C@]3(C)[C@@H]([C@H](C)CC4(S(=N)(=O)c5ccccc5)CC4)CC[C@@H]23)C[C@@H](O)C[C@@H]1O` (single isomer, unassigned) [I(o)], on CYP24 [1], the “selective inhibition of CYP24” value is “selectively inhibit”. The IC50 against CYP24 [2] was 20 nM. Further, the “inhibition … of SCC-25 cells” value in the assay with SCC-25 cells is “act to inhibit the proliferation”. In assay [3], the “inhibition of proliferation of normal human epidermal keratinocytes (NHEK)” value is “act to inhibit the proliferation”.
As for `C=C1/C(=C\C=C2/CCC[C@]3(C)[C@@H]([C@H](C)CCS(=N)(=O)c4ccc(F)cc4)CC[C@@H]23)C[C@@H](O)C[C@@H]1O` (single isomer, unassigned) [I(p)], the “selective inhibition of CYP24” value on CYP24 [1] is reported as “selectively inhibit”. In addition, on CYP24 [2], the IC50 amounted to 42 nM.
As for `C=C1/C(=C\C=C2/CCC[C@]3(C)[C@@H]([C@H](C)CCS(=N)(=O)c4ccc(F)cc4)CC[C@@H]23)C[C@@H](O)C[C@@H]1O` (single isomer, unassigned) [I(q)], the “selective inhibition of CYP24” value on CYP24 [1] was “selectively inhibit”. For the same molecule, inhibition against CYP24 [2] was half-maximal at 78 nM (IC50).
Regarding `C=C1/C(=C\C=C2/CCC[C@]3(C)[C@@H]([C@H](C)/C=C/S(=N)(=O)c4ccccc4)CC[C@@H]23)C[C@@H](O)C[C@@H]1O` (stereo partly shown) [I(r)], the “selective inhibition of CYP24” value on CYP24 [1] is on record as “selectively inhibit”.
`C=C1/C(=C\C=C2/CCC[C@]3(C)[C@@H]([C@@H](C)/C=C/S(=N)(=O)c4ccccc4)CC[C@@H]23)C[C@@H](O)C[C@@H]1O` (stereo partly shown) [I(s)]: on CYP24 [1], the “selective inhibition of CYP24” value was “selectively inhibit”. Further, the IC50 at CYP24 [2] was 580 nM.

The record behind these values is patent US7973024B2, “24-sulfoximine vitamin D3 compounds” (Cyctochroma Inc., priority 2002, dated 2011).
